This assay has as its target human recombinant H-PGDS (Homo sapiens, UniProt O60760). Put plainly: Fluoresecence Intensity h-PGDSTBA Enzyme Assay. The settings on record: IC50, 5.0 μM PGH2, 2.5 mM L-Glutathione, 10 min preincubation, 4-parameter fit, highest inhibitor concentration typically 1 μM.

Where only a bound is given, the exact number is not on record here.

Chain of human recombinant H-PGDS (O60760 whole entry): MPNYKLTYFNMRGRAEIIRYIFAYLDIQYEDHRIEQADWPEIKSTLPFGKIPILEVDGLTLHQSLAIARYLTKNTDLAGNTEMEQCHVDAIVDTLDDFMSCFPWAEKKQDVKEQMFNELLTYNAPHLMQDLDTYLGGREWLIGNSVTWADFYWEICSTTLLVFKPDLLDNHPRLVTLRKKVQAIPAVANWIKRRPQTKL

In the case of `CC(C)N1CCC(NC(=O)c2cnc(-c3ccccc3)nc2)CC1` [Example 13, N-(1-Isopropylpiperidin-4-yl)-2-phenyl-pyrimidine-5-carboxamide], the IC50 was 6.34 nM.

Regarding `O=C(NC1CN(c2cnc3ccccc3n2)C1)c1cnc(-c2cccc(F)c2)nc1` [Example 105, 2-(3-Fluorophenyl)-N-(1-quinoxalin-2-ylazetidin-3-yl)pyrimidine-5-carboxamide], the concentration for half-maximal inhibition (IC50) stood at 0.364 nM.

Take `CC(=O)c1ccccc1-c1ncc(C(=O)NC2CCN(CC(F)(F)F)CC2)cn1` [Example 119, 2-(2-Acetylphenyl)-N-[1-(2,2,2-trifluoroethyl)piperidin-4-yl]pyrimidine-5-carboxamide]: the IC50 is 9460 nM.

Take `O=C(N[C@@H]1CN(c2ncccn2)C[C@@H]1O)c1cnc(-c2cccc(F)c2)nc1` (relative stereo) [Example 98, Cis-2-(3-Fluorophenyl)-N-[4-hydroxy-1-pyrimidin-2-ylpyrrolidin-3-yl]pyrimidine-5-carboxamide]: the half-maximal inhibitory concentration (IC50) worked out at 1.82 nM.

As for `O=C(NC1CCN(C(COc2cccc(Cl)c2)c2ccccc2)CC1)c1cnc(-c2cccc(F)c2)nc1` (stereo not drawn) [Example 41, N-{1-[2-(3-Chlorophenoxy)-1-phenylethyl]piperidin-4-yl}-2-(3-fluorophenyl)pyrimidine-5-carboxamide], the IC50 came out at 10.2 nM.

As for `Cc1cc(F)ccc1OCC(c1ccccc1)N1CCC(NC(=O)c2cnc(-c3cccc(F)c3)nc2)CC1` (stereo not drawn) [Example 57, N-{1-[2-(4-Fluoro-2-methylphenoxy)-1-phenylethyl]piperidin-4-yl}-2-(3-fluorophenyl)pyrimidine-5-carboxamide], the IC50 came out at 11.4 nM.

With `O=C(NC1CCN(C(COc2ccc(C(F)(F)F)cc2)c2ccccc2)CC1)c1cnc(-c2cccc(F)c2)nc1` (stereo not drawn) [Example 48, 2-(3-Fluorophenyl)-N-(1-{1-phenyl-2-[4-(trifluoromethyl)phenoxy]ethyl}piperidin-4-yl)pyrimidine-5-carboxamide], the IC50 came to 29.6 nM.

Regarding `CCC(C)N1CCC(NC(=O)c2cnc(-c3cccc(F)c3)nc2)CC1` (stereo not drawn) [Example 69, N-(1-sec-Butylpiperidin-4-yl)-2-(3-fluorophenyl)pyrimidine-5-carboxamide], the IC50 was 3.59 nM.

Consider `O=C(NC1CCN(C(COc2ccc(F)c(F)c2)c2ccccc2)CC1)c1cnc(-c2cccc(F)c2)nc1` (stereo not drawn) [Example 49, N-{1-[2-(3,4-Difluorophenoxy)-1-phenylethyl]piperidin-4-yl}-2-(3-fluorophenyl)pyrimidine-5-carboxamide], for which the half-maximal inhibitory concentration (IC50) is 6.26 nM.

As to `O=C(NC1CCN(Cc2ccccc2F)CC1)c1cnc(-c2cccc(F)c2)nc1` [Example 64, N-[1-(2-Fluorobenzyl)piperidin-4-yl]-2-(3-fluorophenyl)pyrimidine-5-carboxamide], the concentration for half-maximal inhibition (IC50) was 0.16 nM.

Regarding `CCCC(=O)N1CCC(NC(=O)c2cnc(-c3ccccc3)nc2C)CC1` [Example 5, N-(1-Butyrylpiperidin-4-yl)-4-methyl-2-phenylpyrimidine-5-carboxamide], the concentration for half-maximal inhibition (IC50) came to 8.02 nM.

For `N#Cc1ccccc1C(=O)c1cccnc1N1C[C@H](O)[C@H](NC(=O)c2cnc(-c3cccc(F)c3)nc2)C1` (relative stereo) [Example 97, Cis-N-{1-[3-(2-Cyanobenzoyl)pyridin-2-yl]-4-hydroxypyrrolidin-3-yl}-2-(3-fluorophenyl)pyrimidine-5-carboxamide], the 50% inhibitory concentration (IC50) amounted to 3.83 nM.

Take `O=C(NC1CCN(c2ccc(C(=O)N3CCOCC3)cn2)CC1)c1cnc(-c2cc(F)ccc2F)nc1` [Example 75, 2-(2,5-Difluorophenyl)-N-{1-[5-(morpholin-4-ylcarbonyl)pyridin-2-yl]piperidin-4-yl}pyrimidine-5-carboxamide]: the IC50 came out at 18.3 nM.

On to `CC(C)CN1CCC(NC(=O)c2cnc(-c3ccccc3)nc2N)CC1` [Example 15, 4-Amino-N-(1-isobutylpiperidin-4-yl)-2-phenyl-pyrimidine-5-carboxamide], for which the IC50 was at least 1000 nM.

As to `COc1cccc(OC)c1CN1CCC(NC(=O)c2cnc(-c3ccccc3)nc2)CC1` [Example 14, N-[1-(2,6-Dimethoxybenzyl)piperidin-4-yl]-2-phenylpyrimidine-5-carboxamide], the IC50 is 0.483 nM.

As to `O=C(NC1CCN(C2Cc3ccccc3C2)C1=O)c1cnc(-c2cccc(F)c2)nc1` (stereo not drawn) [Example 90, N-[1-(2,3-Dihydro-1H-inden-2-yl)-2-oxopyrrolidin-3-yl]-2-(3-fluorophenyl)pyrimidine-5-carboxamide], the IC50 was found to be 0.808 nM.

Take `O=C(NC1CCN(Cc2ccc(OC(F)(F)F)cc2)CC1)c1cnc(-c2cccc(F)c2)nc1` [Example 36, 2-(3-Fluorophenyl)-N-{1-[4-(trifluoromethoxy)benzyl]piperidin-4-yl}pyrimidine-5-carboxamide]: the concentration for half-maximal inhibition (IC50) came to 4.54 nM.

In the case of `Cc1ccccc1CN1CCC(NC(=O)c2cnc(-c3cccc(F)c3)nc2)CC1` [Example 62, 2-(3-Fluorophenyl)-N-[1-(2-methylbenzyl)piperidin-4-yl]pyrimidine-5-carboxamide], the half-maximal inhibitory concentration (IC50) came to 0.489 nM.

Turning to `CCc1ccc(OCC(c2ccccc2)N2CCC(NC(=O)c3cnc(-c4cccc(F)c4)nc3)CC2)cc1` (stereo not drawn) [Example 46, N-{1-[2-(4-Ethylphenoxy)-1-phenylethyl]piperidin-4-yl}-2-(3-fluorophenyl)pyrimidine-5-carboxamide], the IC50 turned out to be 23.8 nM.

In the case of `Cc1cc(CN2CCC(NC(=O)c3cnc(-c4cccc(F)c4)nc3)C2=O)ccc1F` (stereo not drawn) [Example 86, N-[1-(4-Fluoro-3-methylbenzyl)-2-oxopyrrolidin-3-yl]-2-(3-fluorophenyl)pyrimidine-5-carboxamide], the IC50 is 6.43 nM.

Consider `CC(C)(C)OC(=O)N1CCC(NC(=O)c2cnc(-c3ccccc3)nc2O)CC1` [Example 20, tert-Butyl 4-{[(4-hydroxy-2-phenyl-pyrimidin-5-yl)carbonyl]amino}piperidine-1-carboxylate], for which the half-maximal inhibitory concentration (IC50) was at least 1000 nM.

In the case of `O=C(NC1CCN(c2cccnn2)CC1)c1cnc(-c2cccc(F)c2)nc1` [Example 26, 2-(3-Fluorophenyl)-N-(1-pyridazin-3-ylpiperidin-4-yl)pyrimidine-5-carboxamide], the IC50 stood at 0.136 nM.

For `Cc1nc(-c2ccccc2)ncc1C(=O)NC1CCN(Cc2ccccn2)CC1` [Example 3, 4-Methyl-2-phenyl-N-[1-(pyridin-2-ylmethyl)piperidin-4-yl]pyrimidine-5-carboxamide], the IC50 turned out to be 14.1 nM.

Turning to `CNC(=O)N1CCC(NC(=O)c2cnc(-c3cccc(F)c3)nc2)CC1` [Example 25, 2-(3-Fluorophenyl)-N-{1-[(methylamino)carbonyl]piperidin-4-yl}pyrimidine-5-carboxamide], the IC50 was determined as 0.373 nM.

Regarding `CCCCN1CCC(NC(=O)c2cnc(-c3cccc(F)c3)nc2)CC1` [Example 61, N-(1-Butylpiperidin-4-yl)-2-(3-fluorophenyl)pyrimidine-5-carboxamide], the IC50 came out at 0.58 nM.

For `CC(=O)N1CC[C@@H](NC(=O)c2cnc(-c3cccc(F)c3)nc2)C1` [Example 88, N-[(3R)-1-Acetylpyrrolidin-3-yl]-2-(3-fluorophenyl)pyrimidine-5-carboxamide], the half-inhibitory concentration (IC50) was found to be 1.58 nM.

In the case of `O=C(NC1CCN(Cc2ccc(F)cc2)CC1)c1cnc(-c2cccc(F)c2)nc1` [Example 63, N-[1-(4-Fluorobenzyl)piperidin-4-yl]-2-(3-fluorophenyl)pyrimidine-5-carboxamide], the 50% inhibitory concentration (IC50) is 0.509 nM.

As for `Cc1ccc(F)c(OCC(c2ccccc2)N2CCC(NC(=O)c3cnc(-c4cccc(F)c4)nc3)CC2)c1` (stereo not drawn) [Example 59, N-{1-[2-(2-Fluoro-5-methylphenoxy)-1-phenylethyl]piperidin-4-yl}-2-(3-fluorophenyl)pyrimidine-5-carboxamide], the IC50 turned out to be 8.16 nM.

For the molecule `O=C(NC1CCN(c2ncc3c(n2)CCOC3)C1)c1cnc(-c2cccc(F)c2)nc1` (stereo not drawn) [Example 81, N-[1-(7,8-Dihydro-5H-pyrano[4,3-d]pyrimidin-2-yl)pyrrolidin-3-yl]-2-(3-fluorophenyl)pyrimidine-5-carboxamide], the IC50 came out at 0.219 nM.

As to `CCOC(=O)N1CCC(NC(=O)c2cnc(-c3cccc(F)c3)nc2)C1` (single isomer, unassigned) [Example 82b, Ethyl 3-(2-(3-fluorophenyl)pyrimidine-5-carboxamido)pyrrolidine-1-carboxylate], the 50% inhibitory concentration (IC50) is 0.58 nM.

Take `Cc1nc(N2CCC(NC(=O)c3cnc(-c4cccc(F)c4)nc3)C2)ncc1S(C)(=O)=O` (stereo not drawn) [Example 80, 2-(3-Fluorophenyl)-N-{1-[4-methyl-5-(methylsulfonyl)pyrimidin-2-yl]pyrrolidin-3-yl}pyrimidine-5-carboxamide]: the IC50 was determined as 0.211 nM.

As for `O=C(NC1CCN(C(COc2cc(F)cc(F)c2)c2ccccc2)CC1)c1cnc(-c2cccc(F)c2)nc1` (stereo not drawn) [Example 34, N-{1-[2-(3,5-Difluorophenoxy)-1-phenylethyl]piperidin-4-yl}-2-(3-fluorophenyl)pyrimidine-5-carboxamide], the half-inhibitory concentration (IC50) was determined as 6.46 nM.

As to `O=C(NC1CCN(c2ncc3c(n2)CCOC3)C1)c1cnc(-c2cccc(F)c2)nc1` (single isomer, unassigned) [Example 81a, N-(1-(7,8-Dihydro-5H-pyrano[4,3-d]pyrimidin-2-yl)pyrrolidin-3-yl)-2-(3-fluorophenyl)pyrimidine-5-carboxamide], the IC50 is 0.27 nM.

With `O=C(NC1CCN(CC2CCCC2)CC1)c1cnc(-c2cccc(F)c2)nc1` [Example 66, N-[1-(Cyclopentylmethyl)piperidin-4-yl]-2-(3-fluorophenyl)pyrimidine-5-carboxamide], the IC50 is 0.355 nM.

As for `COc1cccc(OC)c1CN1CCC(NC(=O)c2cnc(-c3ccccc3)nc2N)CC1` [Example 17, 4-Amino-N-[1-(2,6-dimethoxybenzyl)piperidin-4-yl]-2-phenylpyrimidine-5-carboxamide], the IC50 came to 19.3 nM.

As for `O=C(NC1CCN(Cc2ccccc2)CC1)c1cnc(-c2ccccc2)nc1O` [Example 19, N-(1-Benzylpiperidin-4-yl)-4-hydroxy-2-phenylpyrimidine-5-carboxamide], the IC50 is at least 1000 nM.

Broadly, the IC50 is the midpoint of a concentration-inhibition curve.

Values taken from patent US8067589B2, “Heterocyclic compounds useful in treating diseases and conditions” (Pfizer Inc, priority 2007, dated 2011).
